Drawing on patent publication US10758534B2 (Vertex Pharmaceuticals Incorporated, priority 2014, dated 2020), this text covers EC30 for 31 compounds.

What is called EC30 is the concentration needed for an effect of 30%.

T1 sequence (P13569 with tags, fused parts or gaps DEL508-508): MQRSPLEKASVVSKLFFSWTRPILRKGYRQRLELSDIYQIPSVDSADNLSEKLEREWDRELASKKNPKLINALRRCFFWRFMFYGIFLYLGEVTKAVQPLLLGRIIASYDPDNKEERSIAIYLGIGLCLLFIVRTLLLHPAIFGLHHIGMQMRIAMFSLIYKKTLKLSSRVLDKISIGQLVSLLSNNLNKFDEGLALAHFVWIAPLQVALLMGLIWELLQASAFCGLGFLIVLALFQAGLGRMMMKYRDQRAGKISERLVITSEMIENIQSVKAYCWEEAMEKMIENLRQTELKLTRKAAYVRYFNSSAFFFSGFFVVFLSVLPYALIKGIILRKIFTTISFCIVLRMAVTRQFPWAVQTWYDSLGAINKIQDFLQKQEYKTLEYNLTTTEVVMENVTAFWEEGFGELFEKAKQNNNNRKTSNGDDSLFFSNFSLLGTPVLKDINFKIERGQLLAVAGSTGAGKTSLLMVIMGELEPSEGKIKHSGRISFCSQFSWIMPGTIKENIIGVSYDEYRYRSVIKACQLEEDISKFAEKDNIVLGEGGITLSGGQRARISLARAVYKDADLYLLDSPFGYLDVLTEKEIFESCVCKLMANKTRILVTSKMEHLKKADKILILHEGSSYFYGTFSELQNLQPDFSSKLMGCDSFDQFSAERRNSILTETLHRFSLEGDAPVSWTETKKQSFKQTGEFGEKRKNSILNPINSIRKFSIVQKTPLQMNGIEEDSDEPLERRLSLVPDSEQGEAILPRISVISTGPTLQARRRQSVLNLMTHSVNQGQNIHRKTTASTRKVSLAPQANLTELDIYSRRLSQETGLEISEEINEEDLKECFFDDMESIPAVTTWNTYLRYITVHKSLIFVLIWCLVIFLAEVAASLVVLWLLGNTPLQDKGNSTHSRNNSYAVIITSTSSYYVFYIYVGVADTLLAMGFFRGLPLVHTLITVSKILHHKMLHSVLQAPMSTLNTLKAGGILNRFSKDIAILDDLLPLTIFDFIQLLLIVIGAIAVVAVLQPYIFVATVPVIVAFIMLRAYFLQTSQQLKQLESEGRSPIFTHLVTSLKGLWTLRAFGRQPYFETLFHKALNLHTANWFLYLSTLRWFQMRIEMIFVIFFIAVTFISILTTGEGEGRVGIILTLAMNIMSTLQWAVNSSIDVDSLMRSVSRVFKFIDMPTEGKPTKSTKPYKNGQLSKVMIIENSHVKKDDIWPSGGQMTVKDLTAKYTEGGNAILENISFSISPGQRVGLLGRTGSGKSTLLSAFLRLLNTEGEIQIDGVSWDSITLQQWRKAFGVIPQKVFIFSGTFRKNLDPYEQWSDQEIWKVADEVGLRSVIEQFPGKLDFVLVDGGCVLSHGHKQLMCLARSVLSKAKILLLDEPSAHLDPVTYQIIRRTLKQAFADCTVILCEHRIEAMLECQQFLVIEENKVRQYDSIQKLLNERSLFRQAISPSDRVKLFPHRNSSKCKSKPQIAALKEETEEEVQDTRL

One assay concerns the target T1, F508del (Homo sapiens, UniProt P13569, DEL508-508).
T1 construct: expressed in transfected cells
Briefly: Protocol 2: FRET membrane potential optical assay (VIPR), identification of correction compounds. The note with it: F508del CFTR modulator activity; compounds of Table 1; read-out: EC30. In kind it is cell-based. The method, boiled down: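 NIH3T3 mouse fibroblasts stably expressing F508del were treated with test compound for 16 hrs at 37° C. in serum-free medium; 27° C. incubation served as positive control. F508del was activated with 10 μM forskolin plus 20 μM genistein in Cl^−-free medium, and Cl^− efflux-driven depolarization was read by DiSBAC2(3)/CC2-DMPE FRET.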
As for `CC(C)OC(=O)Nc1cccc(S(=O)(=O)NC(=O)c2ccc(C3=CCCNC3)nc2N2C[C@@H](C)CC2(C)C)n1` [Compound 2624, isopropyl N—[6-[[6-(1,2,3,6-tetrahydropyridin-5-yl)-2-[(4S)-2,2,4-trimethylpyrrolidin-1-yl]pyridine-3-carbonyl]sulfamoyl]-2-pyridyl]carbamate], the EC30 lay within 3000 to 10000 nM. Same read-out and setting: then `Cc1ccc(OCc2ccccc2)cc1-c1cnc(N2CC(C)CC2(C)C)c(C(=O)NS(=O)(=O)c2cccc(N)n2)c1` (stereo not shown) [Compound 2588, N-[(6-amino-2-pyridyl)sulfonyl]-5-(5-benzyloxy-2-methyl-phenyl)-2-(2,2,4-trimethylpyrrolidin-1-yl)pyridine-3-carboxamide], with < 3000 nM. Still for that read-out and setting: next, `CCC(C)(C)C(=O)N1CCC=C(c2ccc(C(=O)NS(=O)(=O)c3cccc(N)n3)c(N3C[C@@H](C)CC3(C)C)n2)C1` [Compound 2612, N-[(6-amino-2-pyridyl)sulfonyl]-6-[1-(2,2-dimethylbutanoyl)-3,6-dihydro-2H-pyridin-5-yl]-2-[(4S)-2,2,4-trimethylpyrrolidin-1-yl]pyridine-3-carboxamide]: 3000 to 10000 nM.

In the case of `CC(C)CCOc1cccc(S(=O)(=O)NC(=O)c2cccnc2N2CC(C)CC2(C)C)n1` (stereo not shown) [Compound 2075, N-[(6-isopentyloxy-2-pyridyl)sulfonyl]-2-(2,2,4-trimethylpyrrolidin-1-yl)pyridine-3-carboxamide], the EC30 was < 3000 nM. Still for that read-out and setting: then `CC1CN(c2ncccc2C(=O)NS(=O)(=O)c2cccc(OCc3ccc(C(F)(F)F)cc3)n2)C(C)(C)C1` (stereo not shown) [Compound 2618, N—[[6-[[4-(trifluoromethyl)phenyl]methoxy]-2-pyridyl]sulfonyl]-2-(2,2,4-trimethylpyrrolidin-1-yl)pyridine-3-carboxamide], with < 3000 nM. Still for that read-out and setting: next, `CCCCOCCCNc1cccc(S(=O)(=O)NC(=O)c2cccnc2N2CC(C)CC2(C)C)n1` (stereo not shown) [Compound 2529, N—[[6-(3-butoxypropylamino)-2-pyridyl]sulfonyl]-2-(2,2,4-trimethylpyrrolidin-1-yl)pyridine-3-carboxamide]: < 3000 nM; `CC(C)COc1cc(F)cc(-c2ccc(C(=O)NS(=O)(=O)c3cccc(N)n3)c(N3CC(C(C)C)CC3(C)C)n2)c1` (stereo not shown) [Compound 2201, N-[(6-amino-2-pyridyl)sulfonyl]-6-(3-fluoro-5-isobutoxy-phenyl)-2-(4-isopropyl-2,2-dimethyl-pyrrolidin-1-yl)pyridine-3-carboxamide]: < 3000 nM. Still for that read-out and setting: next, `CC1CN(c2ncccc2C(=O)NS(=O)(=O)c2cccc(O[C@H](C)Cc3ccccc3)n2)C(C)(C)C1` (stereo partly drawn) [Compound 2470, N—[[6-[(1R)-1-methyl-2-phenyl-ethoxy]-2-pyridyl]sulfonyl]-2-(2,2,4-trimethylpyrrolidin-1-yl)pyridine-3-carboxamide]: < 3000 nM; `C[C@@H]1CN(c2nc3ccccc3cc2C(=O)NS(=O)(=O)c2cccc(N)n2)C(C)(C)C1` [Compound 2265, N-[(6-amino-2-pyridyl)sulfonyl]-2-[(4S)-2,2,4-trimethylpyrrolidin-1-yl]quinoline-3-carboxamide]: < 3000 nM. `COc1cc(-c2ccc(C(=O)NS(=O)(=O)c3cccnc3N)c(N3C[C@@H](C)CC3(C)C)n2)cc(F)c1F` [Compound 1998, N-[(2-amino-3-pyridyl)sulfonyl]-6-(3,4-difluoro-5-methoxy-phenyl)-2-[(4S)-2,2,4-trimethylpyrrolidin-1-yl]pyridine-3-carboxamide]: the 30% effect concentration (EC30) is < 3000 nM. Still for that read-out and setting: then `CC(=O)c1ccc(Oc2cccc(S(=O)(=O)NC(=O)c3cccnc3N3CC(C)CC3(C)C)n2)cc1` (stereo not shown) [Compound 2730], with 3000 to 10000 nM; and `COc1cccc(S(=O)(=O)NC(=O)c2cccnc2N2CC(C)CC2(C)C)n1` (stereo not shown) [Compound 2430], with 3000 to 10000 nM. The same measure, in the same setting: next, `CC1CCN(c2cccc(S(=O)(=O)NC(=O)c3cccnc3N3CC(C)CC3(C)C)n2)CC1` (stereo not shown) [Compound 2330, N—[[6-(4-methyl-1-piperidyl)-2-pyridyl]sulfonyl]-2-(2,2,4-trimethylpyrrolidin-1-yl)pyridine-3-carboxamide]: < 3000 nM; `C[C@@H]1CN(c2nc(C(C)(C)C)c([C@@H](O)[C@H](O)C3CCCC3)cc2C(=O)NS(=O)(=O)c2cccc(N)n2)C(C)(C)C1` (single isomer, unassigned) [Compound 2069]: < 3000 nM. On the same count and under the same terms, next, `C[C@@H]1CN(c2nc(-c3cc(F)cc(F)c3)ccc2C(=O)NS(=O)(=O)c2ccc[nH]c2=O)C(C)(C)C1` [Compound 2652, 6-(3,5-difluorophenyl)-N-[(2-oxo-1H-pyridin-3-yl)sulfonyl]-2-[(4S)-2,2,4-trimethylpyrrolidin-1-yl]pyridine-3-carboxamide]: < 3000 nM; `CCOc1ncc(-c2ccc(C(=O)NS(=O)(=O)c3cccnc3N)c(N3C[C@@H](C)CC3(C)C)n2)cc1C` [Compound 2651, N-[(2-amino-3-pyridyl)sulfonyl]-6-(6-ethoxy-5-methyl-3-pyridyl)-2-[(4S)-2,2,4-trimethylpyrrolidin-1-yl]pyridine-3-carboxamide]: < 3000 nM; `COc1ccc(Nc2cccc(S(=O)(=O)NC(=O)c3cccnc3N3CC(C)CC3(C)C)n2)cc1OC` (stereo not shown) [Compound 2041, N—[[6-(3,4-dimethoxyanilino)-2-pyridyl]sulfonyl]-2-(2,2,4-trimethylpyrrolidin-1-yl)pyridine-3-carboxamide]: < 3000 nM.

Still in this assay, the particulars now being: Table 3; compounds of Table 1 as modulators of CFTR activity; protocol not stated.
In the case of `CC(C)Oc1ccc(-c2ccc(C(=O)NS(=O)(=O)c3cccc(N)n3)c(N3CCCC(c4ccccn4)C3)n2)cn1` (stereo not shown) [Compound 489, N-[(6-amino-2-pyridyl)sulfonyl]-6-(6-isopropoxy-3-pyridyl)-2-[3-(2-pyridyl)-1-piperidyl]pyridine-3-carboxamide], the EC30 result was “+++ (“+++” means <3 uM)”.

Take `Cc1cc(C)c(CN2Cc3ccccc3CC2C(=O)NS(=O)(=O)c2cccc(N)c2)c(C)c1` (stereo not shown) [Compound 213, N-(3-aminophenyl)sulfonyl-2-[(2,4,6-trimethylphenyl)methyl]-3,4-dihydro-1H-isoquinoline-3-carboxamide]: the EC30 entry is reported as “+++ (“+++” means <3 uM)”. The same measure, in the same setting: then `Cc1cc(C)c(Cn2nc(C(C)(C)C)cc2C(=O)NS(=O)(=O)c2cccc(N(C)C)c2C)c(C)c1` [Compound 104, 5-tert-butyl-N-[3-(dimethylamino)-2-methyl-phenyl]sulfonyl-2-[(2,4,6-trimethylphenyl)methyl]pyrazole-3-carboxamide], with “+++ (“+++” means <3 uM)”; and `COC1CCCN(c2nc(-c3cc(F)cc(OCC(C)C)c3)ccc2C(=O)NS(=O)(=O)c2ccn[nH]2)C1` (stereo not shown) [Compound 749, 6-(3-fluoro-5-isobutoxy-phenyl)-2-(3-methoxy-1-piperidyl)-N-(1H-pyrazol-5-ylsulfonyl)pyridine-3-carboxamide], with “+++ (“+++” means <3 uM)”; and `CC(C)COc1cc(F)cc(-c2ccc(C(=O)NS(=O)(=O)C3CCNC3=O)c(N3CC(C)CC3(C)C)n2)c1` (stereo not shown) [Compound 466, 6-(3-fluoro-5-isobutoxy-phenyl)-N-(2-oxopyrrolidin-3-yl)sulfonyl-2-(2,2,4-trimethylpyrrolidin-1-yl)pyridine-3-carboxamide], with “+++ (“+++” means <3 uM)”. On the same count and under the same terms, then `Cc1cccc(C)c1Cn1nc(-c2ccsc2)cc1C(=O)NS(=O)(=O)c1ccccc1` [Compound 357, N-(benzenesulfonyl)-2-[(2,6-dimethylphenyl)methyl]-5-(3-thienyl)pyrazole-3-carboxamide], with “++ (“++” means between 3 uM and 10 uM)”; and `Cc1cc(C)c(Cn2nc(CC(C)C)cc2C(=O)NS(=O)(=O)c2cccc(N)c2)c(C)c1` [Compound 167, N-(3-aminophenyl)sulfonyl-5-isobutyl-2-[(2,4,6-trimethylphenyl)methyl]pyrazole-3-carboxamide], with “++ (“++” means between 3 uM and 10 uM)”. For the compound `CC(c1ccccc1)n1c(C(=O)NS(=O)(=O)c2ccccc2)cc2c(F)cccc21` (stereo not shown) [Compound 160, N-(benzenesulfonyl)-4-fluoro-1-(1-phenylethyl)indole-2-carboxamide], the concentration for an effect of 30% (EC30) result is “+++ (“+++” means <3 uM)”.

As for `CCOC(=O)Cc1ccc(-c2cc(C(=O)NS(=O)(=O)c3ccccc3)n(Cc3c(C)cccc3C)n2)cc1` [Compound 21, ethyl 2-[4-[5-(benzenesulfonylcarbamoyl)-1-[(2,6-dimethylphenyl)methyl]pyrazol-3-yl]phenyl]acetate], the EC30 result is “+++ (“+++” means <3 uM)”. Same read-out and setting: then `CC(C)COc1cc(F)cc(-c2ccc(C(=O)NS(=O)(=O)c3cccc(N)n3)c(OC3CCCOC3)n2)c1` (stereo not shown) [Compound 706, N-[(6-amino-2-pyridyl)sulfonyl]-6-(3-fluoro-5-isobutoxy-phenyl)-2-tetrahydropyran-3-yloxy-pyridine-3-carboxamide], with “+++ (“+++” means <3 uM)”; and `CC(C)(C)c1ccc(C(=O)NS(=O)(=O)c2cccc(N)n2)c(-c2ccccc2)n1` [Compound 334, N-[(6-amino-2-pyridyl)sulfonyl]-6-tert-butyl-2-phenyl-pyridine-3-carboxamide], with “++ (“++” means between 3 uM and 10 uM)”.

With `CC(C)(C)c1cc(C(=O)NS(=O)(=O)c2cccc(N)c2)n(Cc2c(Cl)cc(Cl)cc2Cl)n1` [Compound 303, N-(3-aminophenyl)sulfonyl-5-tert-butyl-2-[(2,4,6-trichlorophenyl)methyl]pyrazole-3-carboxamide], the EC30 entry is reported as “+++ (“+++” means <3 uM)”. With `Cc1ccc(Oc2nc3c(cc2C(=O)NS(=O)(=O)c2cccc(N)n2)CCCC3(C)C)c(C)c1` [Compound 15, N-[(6-amino-2-pyridyl)sulfonyl]-2-(2,4-dimethylphenoxy)-8,8-dimethyl-6,7-dihydro-5H-quinoline-3-carboxamide], the EC30 entry is recorded as “+++ (“+++” means <3 uM)”. For `Cc1cc(C)c(Cc2cn(C(C)(C)C)nc2C(=O)NS(=O)(=O)c2cccc(N)c2)c(C)c1` [Compound 367], the EC30 entry is “+++ (“+++” means <3 uM)”.
